Test results: patent publication US10766898B2, “Therapeutic compound for pain and synthesis thereof” (priority 2015, dated 2020)
Several values for one entry are separate records, joined by “and”; a condition that tells them apart may be missing. Identical values can stand only once.

System: heat hypersensitivity of λ-carrageenan-injected right hind paws of mice
Assay: λ-carrageenan-induced paw inflammation, heat hypersensitivity on hotplate (57° C.), time until first response
Assay type: in vivo
Settings: for Response time at 3.5 h, avg: average of n=5 animals; for Response time at 3.5 h, avg / Response time at 3.5 h: 10 mg/kg ip 30 min before 1% λ-carrageenan, hotplate 57° C., 3.5 h after carrageenan; for Response time at 3.5 h: individual animal, 10 mg/kg; for average response time compared with pretreatment baseline response time: n=5 animals, 10 mg/kg ip, 3.5 h after λ-carrageenan
Description: Intra plantar injection of 1% […] may be used to induce local inflammation to the paws of test subject mice. In general, local inflammation is expressed as paw swelling and increased sensitivity to heat stimuli. Therefore, the effect of a test item on changes in heat hypersensitivity can be assessed. Using the protocol set forth, the therapeutic effect of the compounds of Formula XVIII and XXII were evaluated.
Animals were dosed with a test compound at time zero (control where given vehicle only) at 10 mg/kg ip (test item was dissolved in a 20% […] solution). After 30 minutes the animals were slightly anesthetized with isoflurane, and 0.1 ml of a 1% λ-carrageenan suspension in Distilled Water was injected into the plantar side of the right hind paws of the mice. After 3.5 hours after the λ-carrageenan administration, the animals were placed on a hotplate apparatus maintained at 57° C., and the time until the first response was recorded.

Structure (SMILES) | Response time at 3.5 h, avg [s] | Response time at 3.5 h | average response time compared with pretreatment baseline response time
O=C(O[C@H]1[C@@H]2[C@@H]3C[C@@H](C[C@H]1N3Cc1ccc3c(c1)OCO3)CN2C(=O)c1ccc(F)cn1)C1CC1 (relative stereo) [Compound of Formula XVIII, (2R*,3R*,3aS*,6S*,7aS*)-1-(benzo[d][1,3]dioxol-5-ylmethyl)-4-(5-fluoropicolinoyl)octahydro-1H-2,6-methanopyrrolo[3,2-b]pyridin-3-yl cyclopropanecarboxylate] | 14.6 | 16 sec (2×) and 14 sec and 12 sec and 15 sec | exceeded the pretreatment baseline response time
COCC(=O)N1C[C@@H]2C[C@@H]3C1[C@@H](O)[C@H](C2)N3Cc1cccc(C(N)=O)c1 (relative stereo) [Compound of Formula XXII, 3-(((2S*,3S*,6R*,7aR*)-3-hydroxy-4-(2-methoxyacetyl)octahydro-1H-2,6-methanopyrrolo[3,2-b]pyridin-1-yl)methyl)benzamide] | 12.2 | 12 sec (2×) and 14 sec and 13 sec and 10 sec | exceeded the pretreatment baseline response time
